# Literature values in patent publication US20200038341A1, “METHODS AND COMPOSITIONS FOR TREATING JOINT DISEASE” (Script Essentials, LLC, priority 2015, published 2020).
# Conditions: male and female participants over 50 years old, before and after the intervention
compound,measurement,value
"CS(C)(=O)=O [MSM, Methylsulfonylmethane]","joint function, symptoms of joint degeneration and activities of daily living","improve joint function, relieve symptoms of joint degeneration and improve activities of daily living"
